Values of other authors in paper PMC3544362 (Journal of medicinal chemistry, 2012).
Like-named read-outs stand apart in the source and are kept apart here.

What was measured:
[1] = Sprague-Dawley rats, 5 min p.i.; ref [12]
[2] = rat, 60 min p.i., ref [32]
[3] = presumably rapid in vivo hydrolysis, ref [31]–[32]
[4] = Wistar rats, 60 min p.i., ref [16]

## Fc1ccc([P+](c2ccccc2)(c2ccccc2)c2ccccc2)cc1 [^18F-FTPP]
[1]
  heart uptake: 1.64 %ID/g
  heart-to-blood ratio: 11

## CCN(CC)c1ccc2c(-c3ccccc3C(=O)OCC[18F])c3ccc(=[N+](CC)CC)cc-3oc2c1 [[^18F]3, 2-[^18F]fluoroethyl rhodamine B]
[2]; tissue ratio
  Heart/blood: 25.8
[2]
  Blood: 0.08 ± 0.03 %ID/g
  Bone: 0.45 ± 0.08 %ID/g
  Gut: 2.40 ± 0.53 %ID/g
  Heart: 2.06 ± 0.61 %ID/g
  Kidney: 8.31 ± 0.81 %ID/g
  Liver: 0.89 ± 0.07 %ID/g
  Lung: 1.78 ± 0.65 %ID/g
  Muscle: 0.16 ± 0.04 %ID/g
  Skin: 0.20 ± 0.02 %ID/g
  Spleen: 5.63 ± 0.78 %ID/g
[3]
  accumulation in mouse myocardium: did not accumulate in mouse myocardium

## CC(C)(C)n1ncc(OCc2ccc(COCC[18F])cc2)c(Cl)c1=O [Flurpiridaz F 18]
Sprague-Dawley rats, 60 min p.i., ref [17], [46]
  heart uptake: 3.3 %ID/g
Wistar rats, 10 min p.i., ref [16]
  liver concentration: 0.99 %ID/g
[4]
  heart uptake: 2.06 %ID/g
  liver concentration: 0.38 %ID/g
